These results are taken from patent publication US9751858B2, “3-heteroaroylamino-propionic acid derivatives and their use as pharmaceuticals” (SANOFI, priority 2011, dated 2017).

One test has as its system platelet aggregation. Conditions: hypertensive animals; H. Ostrowska et al., J. Cardiovasc. Pharmacol. 45 (2005); cited from earlier work.
Test [1] concerns the target T1, Recombinant human cathepsin A (Homo sapiens, UniProt P10619).
T1 construct: Recombinant human cathepsin A (residues 29-480, with a C-terminal 10-His tag); 10-His (C); purchased R&D Systems 1049-SE
T1 sequence (P10619 29-326 limits assumed): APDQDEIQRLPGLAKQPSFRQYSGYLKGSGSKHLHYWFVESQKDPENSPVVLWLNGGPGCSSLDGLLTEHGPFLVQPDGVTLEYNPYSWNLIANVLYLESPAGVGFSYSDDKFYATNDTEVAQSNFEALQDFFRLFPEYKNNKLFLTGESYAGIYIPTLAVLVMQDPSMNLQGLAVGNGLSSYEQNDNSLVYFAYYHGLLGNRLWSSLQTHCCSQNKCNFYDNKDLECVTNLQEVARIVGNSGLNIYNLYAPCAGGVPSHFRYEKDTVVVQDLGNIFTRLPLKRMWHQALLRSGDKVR
T1 sequence (P10619 327-480 limits assumed): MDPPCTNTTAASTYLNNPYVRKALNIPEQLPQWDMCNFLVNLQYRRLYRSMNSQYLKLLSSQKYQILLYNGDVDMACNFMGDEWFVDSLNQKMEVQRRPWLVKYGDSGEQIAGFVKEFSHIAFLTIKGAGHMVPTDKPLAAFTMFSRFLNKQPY
Put plainly: Cathepsin A inhibitory activity. Type of test: biochemical. The conditions noted are these: activated recombinant human cathepsin A 833 ng/ml, Bodipy FL-labeled bradykinin 2 μM, pH 5.5, 15 min room temperature. A digest of the protocol:
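Cathepsin A activated by cathepsin L (15 min, 37 °C, pH 6.0), then preincubated 15 min at room temperature with compound in 25 mM MES pH 5.5, 5 mM DTT. Bodipy FL-bradykinin cleavage ran 15 min at room temperature; substrate and product separated by microfluidic capillary electrophoresis, turnover from peak areas.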

Regarding `CC[C@@H](C)[C@@H](O)[C@H](C)C(=O)[C@H](C)/C=C(\C)C[C@H](C)[C@@H]1OC(=O)[C@H]1CC` [ebelactone B], the platelet aggregation entry with platelet aggregation is given as “suppresses platelet aggregation”. As usually defined, the IC50 is the midpoint of a concentration-inhibition curve. In the case of `Cc1oc(-c2ccccc2)nc1C(=O)NC(CC(=O)O)C1CCCCC1` (stereo not shown) [Example 3, 3-Cyclohexyl-3-[(5-methyl-2-phenyl-oxazole-4-carbonyl)-amino]-propionic acid], the IC50 in test [1] was 4970 nM. On the same count and under the same terms, as for `C[C@@](CC(=O)O)(NC(=O)c1noc(-c2cccc(F)c2F)n1)c1ccccc1` [Example 40, (S)-3-{[5-(2,3-Difluoro-phenyl)-[1,2,4]oxadiazole-3-carbonyl]-amino}-3-phenyl-butyric acid], the figure is 1940 nM; as for `CCc1nc(C(=O)N[C@@H](CC(=O)O)c2ccc(C)cc2)nn1-c1ccccc1Cl` [Example 71, (S)-3-{[1-(2-Chloro-phenyl)-5-ethyl-1H-[1,2,4]triazole-3-carbonyl]-amino}-3-p-tolyl-propionic acid], 492 nM; as for `Cc1ccccc1[C@H](CC(=O)O)NC(=O)c1nc(C)n(-c2ccccc2Cl)n1` [Example 57, (S)-3-{[1-(2-Chloro-phenyl)-5-methyl-1H-[1,2,4]triazole-3-carbonyl]-amino}-3-o-tolyl-propionic acid], 261 nM. As for `Cc1ccccc1[C@H](CC(=O)O)NC(=O)CCc1nc(-c2ccccc2F)no1` [Example 53, (S)-3-{3-[3-(2-Fluoro-phenyl)-[1,2,4]oxadiazol-5-yl]-propionylamino}-3-o-tolyl-propionic acid], the IC50 in test [1] was over 10000 nM. Same read-out and setting: to `O=C(O)C[C@H](NC(=O)c1nc(-c2ccccc2)oc1C(F)(F)F)c1ccc(Cl)cc1Cl` [Example 123, (S)-3-(2,4-Dichloro-phenyl)-3-[(2-phenyl-5-trifluoromethyl-oxazole-4-carbonyl)-amino]-propionic acid] belongs 14400 nM; to `CC(C)c1oc(-c2ccccc2)nc1C(=O)N[C@@H](CC(=O)O)c1cccc(Cl)c1Cl` [Example 103, (S)-3-(2,3-Dichloro-phenyl)-3-[(5-isopropyl-2-phenyl-oxazole-4-carbonyl)-amino]-propionic acid], 598 nM. With `O=C(N[C@H](C(=O)O)C1CCCCC1)c1noc(-c2cnccc2C(F)(F)F)n1` [Example 54, (S)-Cyclohexyl-{[5-(4-trifluoromethyl-pyridin-3-yl)-[1,2,4]oxadiazole-3-carbonyl]-amino}-acetic acid], in test [1], the IC50 turned out to be 16700 nM. Still for that read-out and setting: to `CCCc1nc(C(=O)N[C@@H](CC(=O)O)c2ccccc2C)nn1-c1ccccc1Cl` [Example 89, (S)-3-{[1-(2-Chloro-phenyl)-5-propyl-1H-[1,2,4]triazole-3-carbonyl]-amino}-3-o-tolyl-propionic acid] belongs 127 nM; to `Cc1oc(-c2ccccc2F)nc1C(=O)N[C@@H](CC(=O)O)c1ccccc1F` [Example 35, (S)-3-(2-Fluoro-phenyl)-3-{[2-(2-fluoro-phenyl)-5-methyl-oxazole-4-carbonyl]-amino}-propionic acid], 5140 nM.

With `O=C(O)C[C@H](NC(=O)c1nc(-c2ccccc2)n(-c2ccccc2)n1)c1cccc(Cl)c1` [Example 104, (S)-3-(3-Chloro-phenyl)-3-[(1,5-diphenyl-1H-[1,2,4]triazole-3-carbonyl)-amino]-propionic acid], the IC50 in test [1] was determined as 128 nM. The same measure, in the same setting: as for `Cc1oc(-c2ccccc2F)nc1C(=O)N[C@@H](CC(=O)O)c1cccc(Cl)c1Cl` [Example 94, (S)-3-(2,3-Dichloro-phenyl)-3-{[2-(2-fluoro-phenyl)-5-methyl-oxazole-4-carbonyl]-amino}-propionic acid], the figure is 514 nM.
